Results as given in US7705043B2, “Substituted aminodicarboxylic acid derivatives having pharmaceutical properties” (Bayer Schering Pharma Aktiengesellschaft, priority 2001, dated 2010).

Legend:
arteria saphena rings = test: Vasorelaxant effect in vitro (phenylephrine-contracted rings of rabbit arteria saphena); type: cell-based; conditions: Oryctolagus cuniculus, contraction generated by phenylephrine, concentration reducing height of control contraction by 50%
Procedure: Vasorelaxant Effect in Vitro
Rabbits are anesthetized or killed by intravenous injection of thiopental sodium (about 50 mg/kg) and exsanguinated. The arteria saphena is removed and divided into rings 3 mm wide. The individual rings are in each case mounted on a pair of hooks of triangular shape, open at the ends and made of special wire (Remanium®) having a diameter of 0.3 mm. Under tension, each ring is introduced into a 5 ml organ bath containing carbogen-gassed Krebs-Henseleit solution at 37° C. with the following composition (mM): NaCl: 119; KCl: 4.8; CaCl2×2H2O: 1; MgSO4×7H2O: 1.4; KH2PO4: 1.2; NaHCO3: 25; glucose: 10; bovine serum albumin: 0.001%. The force of contraction is detected with Statham UC2 cells, amplified and digitized via A/D converters (DAS-1802 HC, Keithley Instruments, Munich) and recorded in parallel on chart recorders. Contractions are generated by adding phenylephrine.
After several (generally 4) control cycles, the substance to be investigated is added in each further run in increasing dosage in each case, and the height of the contraction reached under the influence of the test substance is compared with the height of the contraction reached in the last preceding run. The concentration necessary to reduce the height of the control value by 50% (IC50) is calculated from this. The standard application volume is 5 μl. The DMSO content in the bath solution corresponds to 0.1%.

An IC50 (arteria saphena rings) of 2 nM was found for `Cc1sc(C)c(COc2ccc(-c3ccc(Cl)cc3Cl)cc2)c1CCN(CCCCC(=O)O)Cc1ccc(C(=O)O)cc1` [Example 3, 4-({(4-Carboxybutyl)[2-(4-{[(2′,4′-dichloro-1,1′-biphenyl-4-yl)oxy]methyl}-2,5-dimethyl-3-thienyl)ethyl]amino}methyl)benzoic acid] in this work.

An IC50 (arteria saphena rings) of 22 nM was found for `Cc1sc(C)c(COc2ccc(-c3ccc(C(F)(F)F)cc3)cc2)c1CCN(CCCCC(=O)O)Cc1ccc(C(=O)O)cc1` [Example 4] in this work.

An IC50 (arteria saphena rings) of 7 nM was found for `COc1ccc(-c2ccc(OCc3c(C)sc(C)c3CCN(CCCCC(=O)O)Cc3ccc(C(=O)O)cc3)cc2)cc1` [Example 5] in this work.

An IC50 (arteria saphena rings) of 61 nM was found for `Cc1sc(C)c(COc2ccc(-c3ccc(C(C)(C)C)cc3)cc2)c1CCN(CCCCC(=O)O)Cc1ccc(C(=O)O)cc1` [Example 9] in this work.

An IC50 (arteria saphena rings) of 51 nM was found for `COc1cccc(-c2ccc(OCc3c(C)sc(C)c3CCN(CCCCC(=O)O)Cc3ccc(C(=O)O)cc3)cc2)c1` [Example 10] in this work.

With `COc1ccc(-c2ccc(COc3cc4c(cc3CCN(CCCCC(=O)O)Cc3ccc(C(=O)O)cc3)CCCC4)cc2)cc1` [Example 13, 4-{[(4-Carboxybutyl)(2-{3-[(4′-methoxy-1,1′-biphenyl-4-yl)methoxy]-5,6,7,8-tetrahydro-2-naphthyl}ethyl)amino]methyl}benzoic acid] the IC50 (arteria saphena rings) was 94 nM and the melting point was > 240 °C.

An IC50 (arteria saphena rings) of 125 nM was found for `Cc1ccc(OCc2ccc(-c3ccc(C(F)(F)F)cc3)cc2)c(CCN(CCCCC(=O)O)Cc2ccc(C(=O)O)cc2)n1` [Example 16] in this work.
